Experimental data reported in patent publication US20040214849A1, “Parenteral administration of 6-hydroxy-oxymorphone for use as an analgesic” (priority 2001, published 2004).

Key:
pain = test: Pain relief (PID / categorical pain scores) compared with blood plasma levels; type: in vivo; conditions: based on the pharmacokinetic studies
Description: (§1) In separate studies, blood plasma levels and indications of pain relief were recorded over a 12 hour period. FIGS. 1-4 show graphical representation of the data combining the two studies such that the effect of blood plasma levels on pain can be evaluated.
The amount administered will be dependent upon normal criteria such as patient weight, intensity of pain, and other factors. Based on the pharmacokinetic studies blood plasma levels around at least 0.05 ng/mL will provide some analgesia. The upper plasma level limit will be ultimately established by safety concerns. […] Subsequent doses may be required to maintain these blood levels.

[1] = target: T1, Opiate, Kappa (Human Recombinant) (Homo sapiens, UniProt P41145); test: Opiate Kappa receptor binding assay
T1 construct: expressed in transfected cells
T1 sequence (P41145 whole entry): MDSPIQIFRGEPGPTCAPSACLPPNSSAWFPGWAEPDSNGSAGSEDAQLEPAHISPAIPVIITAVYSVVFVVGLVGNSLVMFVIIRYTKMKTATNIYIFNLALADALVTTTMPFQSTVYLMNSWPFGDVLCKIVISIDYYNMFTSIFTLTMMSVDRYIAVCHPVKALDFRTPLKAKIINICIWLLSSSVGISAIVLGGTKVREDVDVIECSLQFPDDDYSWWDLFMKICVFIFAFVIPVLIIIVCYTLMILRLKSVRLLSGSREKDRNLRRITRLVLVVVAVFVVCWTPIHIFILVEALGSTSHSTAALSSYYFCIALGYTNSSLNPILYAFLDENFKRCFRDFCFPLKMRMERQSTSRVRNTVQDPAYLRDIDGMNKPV

Opiate, Delta 1 = test: Opiate Delta 1 receptor binding assay
[2] = target: T2, Opiate, Mu (Human Recombinant) (Homo sapiens, UniProt P35372); test: Opiate Mu receptor binding assay
T2 construct: expressed in transfected cells
T2 sequence (P35372 whole entry): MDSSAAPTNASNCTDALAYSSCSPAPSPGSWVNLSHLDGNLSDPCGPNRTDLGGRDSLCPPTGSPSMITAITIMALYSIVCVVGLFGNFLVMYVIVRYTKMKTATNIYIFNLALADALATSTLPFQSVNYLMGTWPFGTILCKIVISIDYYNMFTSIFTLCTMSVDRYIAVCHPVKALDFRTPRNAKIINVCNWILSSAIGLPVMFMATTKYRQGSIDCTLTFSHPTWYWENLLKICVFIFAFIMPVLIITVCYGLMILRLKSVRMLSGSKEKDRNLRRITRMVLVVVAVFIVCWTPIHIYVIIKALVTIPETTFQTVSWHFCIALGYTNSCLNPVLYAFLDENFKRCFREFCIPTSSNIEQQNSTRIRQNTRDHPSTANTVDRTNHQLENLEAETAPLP

[3] = Pharmacokinetic study: blood plasma levels over 12 hours after administration of oxymorphone; type: in vivo
Description: as §1
After this time, oxymorphone levels again drop and eventually fall to levels near the earlier plateau.

[4] = target: T3, Opiate, Delta 2 (Human Recombinant) (Homo sapiens, UniProt P41143); test: Opiate Delta 2 receptor binding assay
T3 construct: expressed in transfected cells
T3 sequence (P41143 whole entry): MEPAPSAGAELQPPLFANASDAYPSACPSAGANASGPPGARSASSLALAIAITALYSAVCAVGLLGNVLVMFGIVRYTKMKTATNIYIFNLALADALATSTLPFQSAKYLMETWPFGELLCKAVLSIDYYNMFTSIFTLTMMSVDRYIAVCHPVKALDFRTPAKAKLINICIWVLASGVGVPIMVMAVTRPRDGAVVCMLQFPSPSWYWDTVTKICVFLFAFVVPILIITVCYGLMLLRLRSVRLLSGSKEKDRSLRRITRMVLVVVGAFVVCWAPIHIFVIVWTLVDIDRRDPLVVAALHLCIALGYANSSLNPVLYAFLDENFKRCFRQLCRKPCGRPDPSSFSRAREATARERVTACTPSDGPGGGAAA

SMILES | blood plasma level that will provide some analgesia (pain) | binding, Opiate Kappa (Human Recombinant) ([1]; 10 nm (1.0 E−8)) | binding, Opiate Kappa (Human Recombinant) ([1]; 10 μm (1.0 E−5)) | binding, Opiate Delta 1 (Opiate, Delta 1; 10 nm (1.0 E−8)) | binding, Opiate Delta 1 (Opiate, Delta 1; 10 μm (1.0 E−5)) | binding, Opiate Mu (Human Recombinant) ([2]; 10 nm (1.0 E−8)) | binding, Opiate Mu (Human Recombinant) ([2]; 10 μm (1.0 E−5)) | time of peak blood plasma level ([3]; after administration of oxymorphone) | binding, Opiate Delta 2 (Human Recombinant) ([4]; 10 nm (1.0 E−8)) | binding, Opiate Delta 2 (Human Recombinant) ([4]; 10 μm (1.0 E−5)) | time of second spike of blood plasma level ([3]; from administration of oxymorphone)
CN1CC[C@]23c4c5ccc(O)c4O[C@H]2C(O)CC[C@@]3(O)[C@H]1C5 (stereo partly shown) [6-hydroxy oxymorphone] | at least 0.05 ng/mL | 2.45% | 62.47% | −4.12% | 90.48% | 63.16% | 99.91% | ≤ 2 h | 7.19% | 55.45% | 
CN1CC[C@]23c4c5ccc(O)c4O[C@H]2C(=O)CC[C@@]3(O)[C@H]1C5 [oxymorphone] |  |  |  | −18.26% | 89.03% |  |  |  |  |  | 4 to 6 h
